From patent publication US20230392126A1, “TISSUE ORGANOIDS” (priority 2016, published 2023)

What was measured:
insulinoma cells = test: Insulin secretion of starved insulinoma cells treated with conditioned medium (ELISA); format: cell-based
[1] = Intraperitoneal insulin tolerance test (ITT) in grafted mice; format: in vivo, mouse; conditions: vs control mice or GLP1 mice without doxycycline
Experimental: For glucose and insulin tolerance tests, an intraperitoneal glucose tolerance test (IPGTT) was performed on mice fed an HFD for 10 weeks. Mice were fasted for 6 h before the test. Animals were injected (1 g/kg glucose/body weight, i.p.) with glucose dissolved in saline, and blood glucose was measured at 0, 30, 60 and 90 min using glucose test strips and glucose meters. An intraperitoneal insulin tolerance test was carried out 1 week after IPGTT. Mice were fasted for 4 h and injected (2 U/kg, i.p.) with insulin purchased from Sigma (St. Louis, MO). Blood glucose levels were determined thereafter at 0, 30, 60 and 90 min.
To examine glucose homeostasis, IPGTT (intraperitoneal glucose tolerance test) and ITT (insulin tolerance test) were performed.

epidermal stem cells = test: Anchorage-independent growth in soft agar; conditions: SCC cancer initiating cells as positive control

GLP1
insulin secretion induced by conditioned medium (insulinoma cells; conditioned medium from mouse epidermal cells): significantly induce secretion of insulin
insulin secretion induced by secreted GLP1 fusion protein (insulinoma cells; from human epidermal cells): induced insulin secretion in vitro
insulin resistance [1]: significantly reduced insulin resistance
anchorage-independent growth (tumorigenicity) (epidermal stem cells): cannot grow in suspension
